{
  "source": "patent US20090280172A1",
  "about": "“GALENIC FORMULATIONS OF ORGANIC COMPOUNDS” (priority 2006, published 2009)",
  "assay": "Bioavailability of transmucosal dosage forms of aliskiren compared with oral formulations",
  "type": "in vivo",
  "conditions": "transmucosal route vs oral formulation e.g. as employed in WO2005/089729",
  "data": [
    {"smiles": "COCCCOc1cc(C[C@@H](C[C@H](N)[C@@H](O)C[C@H](C(=O)NCC(C)(C)C(N)=O)C(C)C)C(C)C)ccc1OC", "note": "[aliskiren, 2(S),4(S),5(S),7(S)-N-(3-amino-2,2-dimethyl-3-oxopropyl)-2,7-di(1-methylethyl)-4-hydroxy-5-amino-8-[4-methoxy-3-(3-methoxy-propoxy)phenyl]-octanamide]", "values": [
      {"measurement": "increase of bioavailability over the bioavailability of an oral formulation", "value": "at least three times"}
    ]}
  ]
}
